US20210047304A1, “Bromodomain Inhibitors” (AbbVie Inc., priority 2016, published 2021)

target: BRD4 (BDI_K57-E168) (Homo sapiens, UniProt O60885); test: TR-FRET bromodomain binding assay, BRD4 BDI

SMILES	Ki [µM]
Cc1cc(F)cc(C)c1Oc1ccc(C(C)(C)O)cc1-c1cn(C)c(=O)cc1O[C@H]1CC[C@H](NC(=O)C(C)(C)C)CC1 [Example 57, N-[trans-4-({5-[2-(4-fluoro-2,6-dimethylphenoxy)-5-(2-hydroxypropan-2-yl)phenyl]-1-methyl-2-oxo-1,2-dihydropyridin-4-yl}oxy)cyclohexyl]-2,2-dimethylpropanamide]	1.66
Cc1cc(F)cc(C)c1Oc1ccc(C(C)(C)O)cc1-c1cn(C)c(=O)cc1OC1CCC(C)(N2CCCC2=O)CC1 (stereo not drawn) [Example 34, 5-[2-(4-fluoro-2,6-dimethylphenoxy)-5-(2-hydroxypropan-2-yl)phenyl]-1-methyl-4-{[trans-4-methyl-4-(2-oxopyrrolidin-1-yl)cyclohexyl]oxy}pyridin-2(1H)-one]	0.89
Cc1cc(F)cc(C)c1Oc1ccc(C(C)(C)O)cc1-c1cn(C)c(=O)cc1O[C@H]1CC[C@H](N2C(=O)[C@H](C)N(C)C2=O)CC1 [Example 83, (5S)-3-[trans-4-({5-[2-(4-fluoro-2,6-dimethylphenoxy)-5-(2-hydroxypropan-2-yl)phenyl]-1-methyl-2-oxo-1,2-dihydropyridin-4-yl}oxy)cyclohexyl]-1,5-dimethylimidazolidine-2,4-dione]	5.89
Cc1cc(F)cc(C)c1Oc1ccc(C(C)(C)O)cc1-c1cn(C)c(=O)cc1O[C@H]1CC[C@H](C(=O)O)CC1 [Example 61, trans-4-({5-[2-(4-fluoro-2,6-dimethylphenoxy)-5-(2-hydroxypropan-2-yl)phenyl]-1-methyl-2-oxo-1,2-dihydropyridin-4-yl}oxy)cyclohexane-1-carboxylic acid]	12.2
Cc1cc(F)cc(C)c1Oc1ccc(C(C)(C)O)cc1-c1cn(C)c(=O)cc1O[C@H]1CC[C@H](NC(=O)C(C)(C)CCCO)CC1 [Example 79, N-[trans-4-({5-[2-(4-fluoro-2,6-dimethylphenoxy)-5-(2-hydroxypropan-2-yl)phenyl]-1-methyl-2-oxo-1,2-dihydropyridin-4-yl}oxy)cyclohexyl]-5-hydroxy-2,2-dimethylpentanamide]	2.53
CCOC(=O)CC(=O)N[C@H]1CC[C@H](Oc2cc(=O)n(C)cc2-c2cc(C(C)(C)O)ccc2Oc2c(C)cc(F)cc2C)CC1 [Example 55, ethyl 3-{[trans-4-({5-[2-(4-fluoro-2,6-dimethylphenoxy)-5-(2-hydroxypropan-2-yl)phenyl]-1-methyl-2-oxo-1,2-dihydropyridin-4-yl}oxy)cyclohexyl]amino}-3-oxopropanoate]	1.87
Cc1cc(F)cc(C)c1Oc1ccc(C(C)(C)O)cc1-c1cn(C)c(=O)cc1NC1CCC(C)(O)CC1 (stereo not drawn) [Example 23, 5-[2-(4-fluoro-2,6-dimethylphenoxy)-5-(2-hydroxypropan-2-yl)phenyl]-4-[(trans-4-hydroxy-4-methylcyclohexyl)amino]-1-methylpyridin-2(1H)-one]	3.63

The next lines start with the values.

Ki [µM]	SMILES
5.24	Cc1cc(F)cc(C)c1Oc1ccc(C(C)(C)O)cc1-c1cn(C)c(=O)cc1O[C@H]1CC[C@H](n2cccnc2=O)CC1 [Example 143, 1-[trans-4-({5-[2-(4-fluoro-2,6-dimethylphenoxy)-5-(2-hydroxypropan-2-yl)phenyl]-1-methyl-2-oxo-1,2-dihydropyridin-4-yl}oxy)cyclohexyl]pyrimidin-2(1H)-one]
4.09	Cc1cc(F)cc(C)c1Oc1ccc(C(C)(C)O)cc1-c1cn(C)c(=O)cc1O[C@H]1CC[C@H](n2ncccc2=O)CC1 [Example 141, 2-[trans-4-({5-[2-(4-fluoro-2,6-dimethylphenoxy)-5-(2-hydroxypropan-2-yl)phenyl]-1-methyl-2-oxo-1,2-dihydropyridin-4-yl}oxy)cyclohexyl]pyridazin-3(2H)-one]
2.5	Cc1cc(F)cc(C)c1Oc1ccc(C(C)(C)O)cc1-c1cn(C)c(=O)cc1O[C@H]1CC[C@H](N2CCOC2=O)CC1 [Example 38, 5-[2-(4-fluoro-2,6-dimethylphenoxy)-5-(2-hydroxypropan-2-yl)phenyl]-1-methyl-4-{[trans-4-(2-oxo-1,3-oxazolidin-3-yl)cyclohexyl]oxy}pyridin-2(1H)-one]
